# Molecular target: His-tagged recombinant human TrkA (Homo sapiens (Human), UniProt P04629)
# Assay: TrkA LanthaScreen Eu Kinase Binding Assay
# Details: averaged IC50; LanthaScreen binding assay of Example A; read-out: TrkA Enzyme IC50
# Description: TrkA binding activity was determined in a TrkA LanthaScreen™ Eu Kinase Binding Assay. 5 nM His-tagged recombinant human TrkA (6HIS tagged cytoplasmic domain from Invitrogen, Catalog No. PV3144) was incubated with 4 nM Alexa-Fluor® Tracer 236 (Invitrogen Cat. No. PV5592), 2 nM biotinylated anti-His (Invitrogen Cat. No. PV6090), and 2 nM europium-labeled Streptavidin (Invitrogen Cat. No. PV5899), in buffer (25 mM MOPS, pH 7.5, 5 mM MgCl2, 0.005% Triton X-100). Three fold serial dilutions of compounds of the invention in DMSO were added to a final percentage of 2% DMSO. After 60-minute incubation at 22° C., the reaction was measured using the EnVision mutlimode plate reader (PerkinElmer) via TR-FRET dual wavelength detection at […]. The percent of control was calculated using a ratiometric emission factor. The IC50 values were determined by fitting a four parameter model to the percent of control data.
# Table A provides averaged IC50 values for compounds of the invention when tested in the assay of Example A, where A represents an averaged IC50 value<100 nM.
# His-tagged recombinant human TrkA, sequence (P04629 440-796): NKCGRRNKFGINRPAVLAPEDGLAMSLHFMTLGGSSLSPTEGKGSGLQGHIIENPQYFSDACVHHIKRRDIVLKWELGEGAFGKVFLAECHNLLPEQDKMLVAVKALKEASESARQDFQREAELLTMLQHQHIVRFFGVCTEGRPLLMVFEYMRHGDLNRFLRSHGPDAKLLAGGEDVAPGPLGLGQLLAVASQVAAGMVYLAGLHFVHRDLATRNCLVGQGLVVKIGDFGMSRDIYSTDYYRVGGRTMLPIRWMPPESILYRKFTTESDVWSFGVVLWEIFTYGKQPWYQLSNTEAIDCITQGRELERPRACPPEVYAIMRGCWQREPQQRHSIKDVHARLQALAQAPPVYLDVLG
row,IC50 [nM],Compound
1,< 100,"COCCN1C[C@@H](NC(=O)Nc2c(C)c(-c3cc(C)c(=O)n(C)c3)nn2-c2ccccc2)[C@H](c2ccc(F)c(F)c2)C1 [Example 29, 1-((3S,4R)-4-(3,4-difluorophenyl)-1-(2-methoxyethyl)pyrrolidin-3-yl)-3-(3-(1,5-dimethyl-6-oxo-1,6-dihydropyridin-3-yl)-4-methyl-1-phenyl-1H-pyrazol-5-yl)urea]"
2,< 100,"COCCN1C[C@@H](NC(=O)Nc2c(C)c(-c3cccnc3F)nn2-c2ccccc2)[C@H](c2ccc(F)c(F)c2)C1 [Example 3, 1-((3S,4R)-4-(3,4-difluorophenyl)-1-(2-methoxyethyl)pyrrolidin-3-yl)-3-(3-(2-fluoropyridin-3-yl)-4-methyl-1-phenyl-1H-pyrazol-5-yl)urea]"
3,< 100,"COCCN1C[C@@H](NC(=O)Nc2c(C)c(-c3cncc(C)c3)nn2-c2ccccc2)[C@H](c2ccc(F)c(F)c2)C1 [Example 5, 1-((3S,4R)-4-(3,4-difluorophenyl)-1-(2-methoxyethyl)pyrrolidin-3-yl)-3-(4-methyl-3-(5-methylpyridin-3-yl)-1-phenyl-1H-pyrazol-5-yl)urea]"
4,< 100,"COCCN1C[C@@H](NC(=O)Nc2c(C)c(-c3cncc(C#N)c3)nn2-c2ccccc2)[C@H](c2ccc(F)c(F)c2)C1 [Example 7, 1-(3-(5-cyanopyridin-3-yl)-4-methyl-1-phenyl-1H-pyrazol-5-yl)-3-((3S,4R)-4-(3,4-difluorophenyl)-1-(2-methoxyethyl)pyrrolidin-3-yl)urea]"
5,< 100,"COCCN1C[C@@H](NC(=O)Nc2c(C)c(-c3cccnc3C)nn2-c2ccccc2)[C@H](c2ccc(F)c(F)c2)C1 [Example 4, 1-((3S,4R)-4-(3,4-difluorophenyl)-1-(2-methoxyethyl)pyrrolidin-3-yl)-3-(4-methyl-3-(2-methylpyridin-3-yl)-1-phenyl-1H-pyrazol-5-yl)urea]"
6,< 100,"COCCN1C[C@@H](NC(=O)Nc2c(C)c(-c3ccc(=O)n(C)c3)nn2-c2ccccc2)[C@H](c2ccc(F)c(Cl)c2)C1 (relative stereo) [Example 22, 1-(trans-4-(3-chloro-4-fluorophenyl)-1-(2-methoxyethyl)pyrrolidin-3-yl)-3-(4-methyl-3-(1-methyl-6-oxo-1,6-dihydropyridin-3-yl)-1-phenyl-1H-pyrazol-5-yl)urea]"
7,< 100,"COCCN1C[C@@H](NC(=O)Nc2c(C)c(-c3cnc(C4CC4)nc3)nn2-c2ccccc2)[C@H](c2ccc(F)c(F)c2)C1 [Example 10, 1-(3-(2-cyclopropylpyrimidin-5-yl)-4-methyl-1-phenyl-1H-pyrazol-5-yl)-3-((3S,4R)-4-(3,4-difluorophenyl)-1-(2-methoxyethyl)pyrrolidin-3-yl)urea]"
8,< 100,"COCCN1C[C@@H](NC(=O)Nc2c(C)c(S(C)(=O)=O)nn2-c2ccccc2)[C@H](c2ccc(F)c(F)c2)C1 [Example 30, 1-((3S,4R)-4-(3,4-difluorophenyl)-1-(2-methoxyethyl)pyrrolidin-3-yl)-3-(4-methyl-3-(methylsulfonyl)-1-phenyl-1H-pyrazol-5-yl)urea]"
9,< 100,"COCCN1C[C@@H](NC(=O)Nc2c(C)c(-c3cnc(NC4CC4)nc3)nn2-c2ccccc2)[C@H](c2ccc(F)c(F)c2)C1 [Example 20, 1-(3-(2-(cyclopropylamino)pyrimidin-5-yl)-4-methyl-1-phenyl-1H-pyrazol-5-yl)-3-((3S,4R)-4-(3,4-difluorophenyl)-1-(2-methoxyethyl)pyrrolidin-3-yl)urea]"
10,< 100,"COCCN1C[C@@H](NC(=O)Nc2c(C)c(-c3cnc(C)nc3)nn2-c2ccccc2)[C@H](c2ccc(F)cc2)C1 [Example 13, 1-((3S,4R)-4-(4-fluorophenyl)-1-(2-methoxyethyl)pyrrolidin-3-yl)-3-(4-methyl-3-(2-methylpyrimidin-5-yl)-1-phenyl-1H-pyrazol-5-yl)urea]"
11,< 100,"COCCN1C[C@@H](NC(=O)Nc2c(C)c(-c3ccc(=O)n(C)n3)nn2-c2ccccc2)[C@H](c2ccc(F)cc2)C1 [Example 18, 1-((3S,4R)-4-(4-fluorophenyl)-1-(2-methoxyethyl)pyrrolidin-3-yl)-3-(4-methyl-3-(1-methyl-6-oxo-1,6-dihydropyridazin-3-yl)-1-phenyl-1H-pyrazol-5-yl)urea]"
12,< 100,"COCCN1C[C@@H](NC(=O)Nc2c(C)c(-c3cnc(C4CC4)nc3)nn2-c2ccccc2)[C@H](c2ccc(F)cc2)C1 [Example 11, 1-(3-(2-cyclopropylprimidin-5-yl)-4-methyl-1-phenyl-1H-pyrazol-5-yl)-3-((3S,4R)-4-(4-fluorophenyl)-1-(2-methoxyethyl)pyrrolidin-3-yl)urea]"
13,< 100,"CCOc1ncc(-c2nn(-c3ccccc3)c(NC(=O)N[C@@H]3CN(CCOC)C[C@H]3c3ccc(F)cc3)c2C)cn1 [Example 15, 1-(3-(2-ethoxypyrimidin-5-yl)-4-methyl-1-phenyl-1H-pyrazol-5-yl)-3-((3S,4R)-4-(4-fluorophenyl)-1-(2-methoxyethyl)pyrrolidin-3-yl)urea]"
14,< 100,"COCCN1C[C@@H](NC(=O)Nc2c(C)c(-c3ccc(=O)n(C)c3)nn2-c2ccccc2)[C@H](c2cccc(Cl)c2)C1 (relative stereo) [Example 25, 1-(trans-4-(3-chlorophenyl)-1-(2-methoxyethyl)pyrrolidin-3-yl)-3-(4-methyl-3-(1-methyl-6-oxo-1,6-dihydropyridin-3-yl)-1-phenyl-1H-pyrazol-5-yl)urea]"
15,< 100,"COCCN1C[C@@H](NC(=O)Nc2c(C)c(-c3ccc(=O)n(C)c3)nn2-c2ccccc2)[C@H](c2cc(F)c(F)c(F)c2)C1 [Example 26, 1-((3S,4R)-1-(2-methoxyethyl)-4-(3,4,5-trifluorophenyl)pyrrolidin-3-yl)-3-(4-methyl-3-(1-methyl-6-oxo-1,6-dihydropyridin-3-yl)-1-phenyl-1H-pyrazol-5-yl)urea]"
16,< 100,"COCCN1C[C@@H](NC(=O)Nc2c(C)c(-c3ccc(=O)n(C)c3)nn2-c2ccccc2)[C@H](c2cc(F)cc(Cl)c2)C1 (relative stereo) [Example 24, 1-(trans-4-(3-chloro-5-fluorophenyl)-1-(2-methoxyethyl)pyrrolidin-3-yl)-3-(4-methyl-3-(1-methyl-6-oxo-1,6-dihydropyridin-3-yl)-1-phenyl-1H-pyrazol-5-yl)urea]"
17,< 100,"COCCN1C[C@@H](NC(=O)Nc2c(C)c(-c3cnc(NC4CC4)nc3)nn2-c2ccccc2)[C@H](c2ccc(F)cc2)C1 [Example 21, 1-(3-(2-(cyclopropylamino)pyrimidin-5-yl)-4-methyl-1-phenyl-1H-pyrazol-5-yl)-3-((3S,4R)-4-(4-fluorophenyl)-1-(2-methoxyethyl)pyrrolidin-3-yl)urea di-trifluoroacetate]"
18,< 100,"COCCN1C[C@@H](NC(=O)Nc2c(C)c(-c3ccc(=O)n(C)c3)nn2-c2ccccc2)[C@H](c2cccc(F)c2)C1 [Example 27, 1-((3S,4R)-4-(3-fluorophenyl)-1-(2-methoxyethyl)pyrrolidin-3-yl)-3-(4-methyl-3-(1-methyl-6-oxo-1,6-dihydropyridin-3-yl)-1-phenyl-1H-pyrazol-5-yl)urea]"
19,< 100,"COCCN1C[C@@H](NC(=O)Nc2c(C)c(-c3ccc(=O)n(C)n3)nn2-c2ccccc2)[C@H](c2ccc(F)c(F)c2)C1 [Example 17, 1-((3S,4R)-4-(3,4-difluorophenyl)-1-(2-methoxyethyl)pyrrolidin-3-yl)-3-(4-methyl-3-(1-methyl-6-oxo-1,6-dihydropyridazin-3-yl)-1-phenyl-1H-pyrazol-5-yl)urea]"
20,< 100,"COCCN1C[C@@H](NC(=O)Nc2c(C)c(-c3ccc(OC)nc3)nn2-c2ccccc2)[C@H](c2ccc(F)c(F)c2)C1 [Example 8, 1-((3S,4R)-4-(3,4-difluorophenyl)-1-(2-methoxyethyl)pyrrolidin-3-yl)-3-(3-(6-methoxypyridin-3-yl)-4-methyl-1-phenyl-1H-pyrazol-5-yl)urea]"
21,< 100,"COCCN1C[C@@H](NC(=O)Nc2c(C)c(-c3cnc(OC)nc3)nn2-c2ccccc2)[C@H](c2cc(F)cc(F)c2)C1 [Example 12, 1-((3S,4R)-4-(3,5-difluorophenyl)-1-(2-methoxyethyl)pyrrolidin-3-yl)-3-(3-(2-methoxypyrimidin-5-yl)-4-methyl-1-phenyl-1H-pyrazol-5-yl)urea]"
22,< 100,"CCOc1ncc(-c2nn(-c3ccccc3)c(NC(=O)N[C@@H]3CN(CCOC)C[C@H]3c3ccc(F)c(F)c3)c2C)cn1 [Example 9, 1-((3S,4R)-4-(3,4-difluorophenyl)-1-(2-methoxyethyl)pyrrolidin-3-yl)-3-(3-(2-ethoxypyrimidin-5-yl)-4-methyl-1-phenyl-1H-pyrazol-5-yl)urea]"
23,< 100,"CCOc1ncc(-c2nn(-c3ccccc3)c(NC(=O)N[C@@H]3CN(CCOC)C[C@H]3c3cc(F)cc(F)c3)c2C)cn1 [Example 16, 1-((3S,4R)-4-(3,5-difluorophenyl)-1-(2-methoxyethyl)pyrrolidin-3-yl)-3-(3-(2-ethoxypyrimidin-5-yl)-4-methyl-1-phenyl-1H-pyrazol-5-yl)urea]"
24,< 100,"COCCN1C[C@@H](NC(=O)Nc2c(C)c(-c3ccc(=O)n(C)n3)nn2-c2ccccc2)[C@H](c2cc(F)cc(F)c2)C1 [Example 19, 1-((3S,4R)-4-(3,5-difluorophenyl)-1-(2-methoxyethyl)pyrrolidin-3-yl)-3-(4-methyl-3-(1-methyl-6-oxo-1,6-dihydropyridazin-3-yl)-1-phenyl-1H-pyrazol-5-yl)urea]"
